Experimental data published in ChEMBL document CHEMBL1142603, “Manzamine B and E and ircinal A related alkaloids from an Indonesian Acanthostrongylophora sponge and their activity against infectious, tropical parasitic, and Alzheimer's diseases” (J Nat Prod, 2006).
Converted amounts (≈) assume the structure as drawn. The source made the active and inactive calls. The calls are words filed in the database; no cut-off is given here.

Experiments:
Staphylococcus aureus [1] = test: Antibacterial activity against Staphylococcus aureus; format: functional, organism-based
[2] = test system: Mycobacterium intracellulare; test: Antibacterial activity against Mycobacterium intracellular by alamar blue assay; format: functional, organism-based
Plasmodium falciparum [3] = test: Antimalarial activity after 72 hrs against chloroquine-resistant Plasmodium falciparum W2 in erythrocytes at […] by LDH reporter assay; format: functional, organism-based
Plasmodium falciparum [4] = test: Antimalarial activity after 72 hrs against chloroquine-sensitive Plasmodium falciparum D6 in erythrocytes by LDH reporter assay; format: functional, organism-based; conditions: D6, 72 h
Staphylococcus aureus [5] = test: Antibacterial activity against methicillin-resistant Staphylococcus aureus; format: functional, organism-based
[6] = target: Beta-secretase 1 (Homo sapiens) (UniProt P56817); test: Inhibition of human recombinant BACE1 by FRET-based assay
Chain of Beta-secretase 1 (Homo sapiens) (P56817 whole entry): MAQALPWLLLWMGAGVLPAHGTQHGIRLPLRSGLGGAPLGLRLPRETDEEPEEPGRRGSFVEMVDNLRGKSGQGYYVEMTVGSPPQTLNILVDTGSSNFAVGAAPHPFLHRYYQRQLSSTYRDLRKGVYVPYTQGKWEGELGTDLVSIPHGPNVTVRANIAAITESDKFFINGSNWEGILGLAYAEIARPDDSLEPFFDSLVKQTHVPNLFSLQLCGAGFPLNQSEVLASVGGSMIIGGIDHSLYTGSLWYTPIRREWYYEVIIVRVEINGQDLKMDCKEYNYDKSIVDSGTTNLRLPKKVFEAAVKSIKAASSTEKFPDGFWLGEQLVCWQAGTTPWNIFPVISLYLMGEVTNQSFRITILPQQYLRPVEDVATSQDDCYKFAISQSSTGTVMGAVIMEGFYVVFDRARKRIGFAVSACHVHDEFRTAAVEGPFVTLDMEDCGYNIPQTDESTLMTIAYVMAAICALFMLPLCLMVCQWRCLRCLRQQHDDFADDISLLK

Vero [7] = test: Cytotoxicity against african green monkey Vero cells at 4.76 ug/mL by neutral red assay; format: cell-based; conditions: chlorocebus sabaeus
[8] = test system: Mycobacterium tuberculosis; test: Antituberculosis activity against Mycobacterium tuberculosis H37Rv at 64 ug/mL after 24 hrs by alamar blue assay; format: functional, organism-based
[9] = target: T1, Acetylcholinesterase (Bos taurus) (UniProt P23795); test: Inhibition of bovine AChE
T1 sequence (whole entry): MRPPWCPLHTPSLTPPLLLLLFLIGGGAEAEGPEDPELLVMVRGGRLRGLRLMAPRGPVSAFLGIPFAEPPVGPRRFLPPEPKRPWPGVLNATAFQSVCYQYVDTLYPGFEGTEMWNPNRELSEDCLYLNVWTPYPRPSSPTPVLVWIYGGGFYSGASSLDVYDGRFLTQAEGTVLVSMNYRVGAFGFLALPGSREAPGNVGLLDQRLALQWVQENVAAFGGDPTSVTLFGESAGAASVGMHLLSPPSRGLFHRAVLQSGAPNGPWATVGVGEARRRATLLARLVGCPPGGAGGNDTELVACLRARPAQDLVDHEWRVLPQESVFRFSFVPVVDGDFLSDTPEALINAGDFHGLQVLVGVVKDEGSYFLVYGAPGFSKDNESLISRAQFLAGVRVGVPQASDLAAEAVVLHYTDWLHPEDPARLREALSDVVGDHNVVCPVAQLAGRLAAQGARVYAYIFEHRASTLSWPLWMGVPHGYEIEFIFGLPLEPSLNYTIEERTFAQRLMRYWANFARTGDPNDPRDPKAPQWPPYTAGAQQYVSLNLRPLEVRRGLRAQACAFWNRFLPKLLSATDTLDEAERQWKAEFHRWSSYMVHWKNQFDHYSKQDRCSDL

Leishmania donovani = test: Antileishmanial activity against Leishmania donovani after 72 hrs by alamar blue assay; format: functional, organism-based
Cryptococcus neoformans = test: Antifungal activity against Cryptococcus neoformans; format: functional, organism-based
[10] = Toxicity against medaka eggs assessed as eggs failing to hatch up to 10.6 uM after 11 days relative to control; parameters: species or system Egg; conditions: oryzias latipes, 264 h
[11] = Toxicity against medaka eggs assessed as eggs failing to hatch after 11 days; parameters: species or system Egg; conditions: oryzias latipes, 264 h
[12] = target: Glycogen synthase kinase-3 beta (Homo sapiens) (UniProt P49841); test: Inhibition of human recombinant GSK3-beta assessed as incorporation of [33P]gammaATP into G2S peptide at 25 uM
Chain of Glycogen synthase kinase-3 beta (Homo sapiens) (P49841 whole entry, looked up): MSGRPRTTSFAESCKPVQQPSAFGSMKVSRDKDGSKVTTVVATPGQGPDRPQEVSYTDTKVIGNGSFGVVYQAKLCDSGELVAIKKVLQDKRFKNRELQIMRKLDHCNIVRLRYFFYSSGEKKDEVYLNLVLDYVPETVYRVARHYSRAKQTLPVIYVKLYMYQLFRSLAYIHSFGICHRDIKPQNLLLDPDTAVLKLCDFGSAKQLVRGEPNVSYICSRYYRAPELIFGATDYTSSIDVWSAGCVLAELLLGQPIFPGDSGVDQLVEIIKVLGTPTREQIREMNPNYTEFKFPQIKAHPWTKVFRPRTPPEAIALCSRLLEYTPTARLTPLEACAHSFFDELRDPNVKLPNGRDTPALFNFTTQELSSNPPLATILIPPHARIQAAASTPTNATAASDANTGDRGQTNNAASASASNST

[13] = target: Glycogen synthase kinase-3 beta (Homo sapiens) (UniProt P49841); test: Inhibition of GSK3-beta in human SH-SY5Y cells assessed as inhibition of tau phosphorylation at Ser396 at 5 uM after 24 hrs by ELISA sandwich method; format: cell-based
Vero [14] = test: Cytotoxicity against african green monkey Vero cells by neutral red assay; format: cell-based; conditions: chlorocebus sabaeus
SH-SY5Y = test: Cytotoxicity against human SH-SY5Y cells at 5 uM; format: cell-based
Plasmodium falciparum [15] = test: Antimalarial activity after 72 hrs against chloroquine-resistant Plasmodium falciparum W2 in erythrocytes by LDH reporter assay; format: functional, organism-based; conditions: W2, 72 h
[16] = test system: Voltage-gated calcium channel; test: Blocking of calcium channel in human SH-SY5Y cells assessed as inhibition of KCL depolarization-induced cytosolic calcium increase at 1 uM; format: cell-based
[17] = test system: Mycobacterium tuberculosis; test: Antituberculosis activity against Mycobacterium tuberculosis H37Rv after 24 hrs by alamar blue assay; format: functional
[18] = Toxicity against medaka fry after 96 hrs; format: organism-based; conditions: oryzias latipes, in vivo; read-out: LD50
[19] = Selectivity ratio of LD50 for medaka fry to ED50 for medaka eggs; conditions: oryzias latipes
[20] = test system: Human immunodeficiency virus 1; test: Antiviral activity against HIV1 3B assessed as reverse transcriptase activity by enzyme immunoassay; format: functional, organism-based; conditions: Human immunodeficiency virus 1, 3B

C1=C(c2nccc3c2[nH]c2ccccc23)[C@@H]2CCN3CCCC/C=C\CC[C@]14O[C@@]15/C=C\CCCCN1[C@@H]4[C@]2(C3)C5 [12,34-OXAMANZAMINE A]
Activity (Staphylococcus aureus [1]): inactive | Activity [2]: inactive | Activity (Plasmodium falciparum [3]): inactive | IC50 (Plasmodium falciparum [4]): 4.76 µg/mL (≈ 8.71 µM) | Activity (Staphylococcus aureus [5]): inactive | Activity [6]: inactive | Activity (Vero [7]): Non-toxic | Activity [8]: inactive | Activity [9]: inactive | IC50 (Leishmania donovani): 14 µg/mL (≈ 25.6 µM) | IC90 (Leishmania donovani): 40 µg/mL (≈ 73.2 µM) | Activity (Cryptococcus neoformans): inactive

CCN(CC)CCCC(C)Nc1ccnc2cc(Cl)ccc12 (configuration not stated) [CHLOROQUINE]
Activity [10]: Not Active

O[C@]12C=C(c3nccc4c3[nH]c3ccccc34)[C@@H]3CCN(CCCC/C=C\CC1)C[C@@]31C[C@@H]3/C=C\CCCCN3[C@H]12 [MANZAMINE A]
ED50 [11]: 170 nM | inhibition [12]: 73.2% | IC50 (Staphylococcus aureus [1]): 0.5 µg/mL (≈ 0.911 µM) | IC50 [2]: 0.35 µg/mL (≈ 0.638 µM) | Activity [13]: Active | IC50 (Vero [14]): 1.2 µg/mL (≈ 2.19 µM) | Activity (SH-SY5Y): Non-toxic | IC50 (Plasmodium falciparum [15]): 0.008 µg/mL (≈ 0.0146 µM) | IC50 (Plasmodium falciparum [4]): 0.0045 µg/mL (≈ 0.0082 µM) | IC50 (Staphylococcus aureus [5]): 0.7 µg/mL (≈ 1.28 µM) | Activity [6]: inactive | inhibition (INH) [16]: 20% | MIC [17]: 1.5 µg/mL (≈ 2.73 µM) | LC50 at 96 h [18]: 74 nM | Activity [9]: inactive | selectivity ratio [19]: 2.3 | IC50 (Leishmania donovani): 0.9 µg/mL (≈ 1.64 µM) | IC90 (Leishmania donovani): 1.8 µg/mL (≈ 3.28 µM) | IC50 (Cryptococcus neoformans): 3 µg/mL (≈ 5.47 µM) | IC50 [20]: 4.2 µg/mL (≈ 7.65 µM)

O[C@@H]1CCCN2CC[C@@H]1O[C@@]13CC[C@@H](OC[C@]45CN6CCCC/C=C\CC[C@](O)(C=C(c7nccc8c7[nH]c7ccccc78)[C@@H]4CC6)[C@H]25)[C@@H](O)CCN1[C@@H]1[C@]2(CN4CCCC/C=C\CC[C@]1(O)C=C(c1nccc5c1[nH]c1ccccc15)[C@@H]2CC4)C3 [NEO-KAULUAMINE]
ED50 [11]: 2450 nM | inhibition [12]: 82% | LC50 at 96 h [18]: 820 nM | selectivity ratio [19]: 3
